From patent US11173166B2, “Composition and uses thereof” (BH Biotech Pty Ltd, priority 2017, dated 2021)

Key:
NLRP3 inflammasome = NLRP3 inflammasome (Homo sapiens, UniProt Q96P20); assay: THP-1 NLRP3 inflammasome assay (LPS priming plus ATP stimulation, IL-1β ELISA), with Chou-Talalay CI analysis; conditions: for inhibition of NLRP3 inflammasome activation (IL-1β production), in words: single agent, THP-1 primed with LPS, stimulated with ATP
Method: Absorbance data obtained from the ELISA assays was transformed into relative inhibition using Microsoft Excel. Dose-response curves and statistical analyses were generated using GraphPad Prism software. To generate dose-response curves, first the dose was transformed into Log10, then curves were generated using the non-linear regression option log[inhibitor] vs response-variable slope (four parameter). Statistical comparisons between treatment and control groups were performed using One Way ANOVA with GraphPad Prism statistical software.
The latest version of CompuSyn software was used to analyse data and generate CI and graphical representations of drug-drug interactions.
Monocytes were first primed for three hours with 100 nM LPS, then stimulated with ATP.

[1] = Solubility behaviour in the cell-based assay system / aqueous solution
From the text: The interaction between ashwagandha and turmeric plant extracts was studied. […] To overcome this experimental limitation low doses at approximately the Fa 0.2 range were focused on, and the mean relative inhibition values of the single extract versus the ashwagandha plus turmeric plant extract combination were compared.
The combination of turmeric and pepper (Piper nigrum) plant extracts was investigated.

Chain of NLRP3 inflammasome (Q96P20 whole entry): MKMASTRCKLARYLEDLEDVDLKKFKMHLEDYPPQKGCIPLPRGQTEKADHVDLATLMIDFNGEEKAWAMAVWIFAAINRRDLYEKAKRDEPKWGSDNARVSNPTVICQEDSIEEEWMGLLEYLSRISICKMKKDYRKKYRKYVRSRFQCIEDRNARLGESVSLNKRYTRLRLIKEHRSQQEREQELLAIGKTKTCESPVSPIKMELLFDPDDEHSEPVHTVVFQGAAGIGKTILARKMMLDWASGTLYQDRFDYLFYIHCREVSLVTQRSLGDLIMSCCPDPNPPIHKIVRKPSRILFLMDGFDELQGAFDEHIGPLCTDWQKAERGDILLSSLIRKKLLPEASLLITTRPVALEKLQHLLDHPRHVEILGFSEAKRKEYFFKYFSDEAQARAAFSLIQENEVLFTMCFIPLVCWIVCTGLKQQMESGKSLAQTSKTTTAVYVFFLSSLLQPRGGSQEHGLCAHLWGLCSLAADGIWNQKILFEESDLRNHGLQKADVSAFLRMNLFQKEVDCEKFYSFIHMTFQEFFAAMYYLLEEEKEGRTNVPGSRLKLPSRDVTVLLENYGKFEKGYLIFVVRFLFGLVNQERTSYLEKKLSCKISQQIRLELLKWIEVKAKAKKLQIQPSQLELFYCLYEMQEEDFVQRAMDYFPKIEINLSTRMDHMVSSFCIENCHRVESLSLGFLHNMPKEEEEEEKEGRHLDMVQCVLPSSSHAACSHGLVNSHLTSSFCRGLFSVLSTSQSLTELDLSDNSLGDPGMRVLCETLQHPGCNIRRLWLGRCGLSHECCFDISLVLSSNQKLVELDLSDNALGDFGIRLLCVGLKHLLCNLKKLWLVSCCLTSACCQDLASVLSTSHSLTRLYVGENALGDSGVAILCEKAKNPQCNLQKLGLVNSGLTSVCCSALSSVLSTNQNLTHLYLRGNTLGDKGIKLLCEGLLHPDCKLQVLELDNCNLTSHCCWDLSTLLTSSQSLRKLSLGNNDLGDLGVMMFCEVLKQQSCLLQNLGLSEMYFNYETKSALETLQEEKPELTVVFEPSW

## COc1cc(C2Oc3cc([C@H]4Oc5cc(O)cc(O)c5C(=O)[C@@H]4O)ccc3OC2CO)ccc1O (stereo partly drawn) [silybin]
NLRP3 inflammasome; combined with withaferin A, curcumin and piperine
  interaction in drug combination experiments (polynonogram): striking antagonism
NLRP3 inflammasome
  inhibition of NLRP3 inflammasome activation (IL-1β production), in words: effectively inhibiting inflammation

## O=C(/C=C/C=C/c1ccc2c(c1)OCO2)N1CCCCC1 [piperine]
NLRP3 inflammasome; limited because compound came out of solution at higher doses
  inflammasome inhibition, highest observed: ≤ 35%
[1]
  solubility behaviour: came out of solution at the higher doses

## CC1=C(CO)C(=O)O[C@@H]([C@@H](C)[C@H]2CC[C@H]3[C@@H]4C[C@H]5O[C@]56[C@@H](O)C=CC(=O)[C@]6(C)[C@H]4CC[C@]23C)C1 [withaferin A]
NLRP3 inflammasome; low dose: below Fa 0.4 for pure compounds, approximately Fa 0.2 for extracts
  efficacy relative to vehicle control (ANOVA): efficacious relative to vehicle control
NLRP3 inflammasome
  inhibition of NLRP3 inflammasome activation (IL-1β production), in words: inhibit NLRP3 inflammasome activity
